One data set has as its target T1, Oxytocin receptor (Homo sapiens, UniProt P30559).
T1 sequence (P30559 whole entry): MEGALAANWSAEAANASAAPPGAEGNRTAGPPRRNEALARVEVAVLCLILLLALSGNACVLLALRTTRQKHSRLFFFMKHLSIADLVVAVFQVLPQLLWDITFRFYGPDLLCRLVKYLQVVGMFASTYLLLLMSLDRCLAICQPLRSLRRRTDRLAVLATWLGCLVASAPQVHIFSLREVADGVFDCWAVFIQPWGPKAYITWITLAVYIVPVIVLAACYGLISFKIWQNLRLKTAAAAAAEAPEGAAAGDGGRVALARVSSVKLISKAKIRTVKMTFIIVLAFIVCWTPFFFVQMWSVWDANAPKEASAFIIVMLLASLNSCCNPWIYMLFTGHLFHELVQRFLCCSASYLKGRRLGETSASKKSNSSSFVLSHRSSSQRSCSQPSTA
The experiment in a line: Agonist activity at human OTR expressed in CHO cells assessed as increase in calcium flux after 60 to 120 mins by fluo-4 dye based FLIPR assay. It counts as functional, cell-based. (In general: Calcium flux is commonly read through the fluorescence of an indicator in the cells.)

A short description of data set [1]: Stability in human liver microsomes by LC/MS/MS analysis. In kind it is ADME, microsome. The conditions noted are these: read-out: Stability. (Microsomes from liver hold many membrane-bound enzymes, among them those of drug oxidation.)
In another data set the target is Vasopressin V1a receptor (Homo sapiens, UniProt P37288). The experiment in a line: Agonist activity at vasopressin 1a receptor (unknown origin). It counts as functional.
Data set [2] deals with T2, Oxytocin receptor (Homo sapiens) (UniProt P30559).
T2 sequence (whole entry): T1 sequence (P30559 whole entry)
Briefly: Agonist activity at human OTR expressed in CHO cells assessed as increase in calcium flux after 60 to 120 mins by fluo-4 dye based FLIPR assay relative to control. It counts as functional, cell-based.

*1 amine or outer side, *2 acyl side, *3 side chain or, on linkers, in order; H or OH if unused. Where a SMILES comes first, the peptide text is derived from it. Bridges are numbered along the chain shown (N, C = ends). [ ]: non-standard residue; d: D form. The star is where a group is joined. X3 = c1ccc(OC[C@@H]2CCCN2*)cc1; X5 = c1ccc(NC[C@@H]2CCCN2*)cc1; X8 = c1ccc(CC[C@@H]2CCCN2*)cc1; Cysteamide = C(CS[*:3])N[*:1]; X1 = c1ccc([C@@H]2CCCN2*)nc1; X6 = Cc1nnc([C@@H]2CCCN2*)o1; X9 = C1CCN(C2CCN(*)CC2)C1; Pyrrolidide = C1CCN(*)C1; X4 = COC[C@@H]1CCCN1*; X10 = CN1CCCN(*)CC1; X2 = C[C@H]1CCCN1*; X7 = CC(C)CCN(C)*; Mpa = O=C(O)CCS

Chain of Vasopressin V1a receptor (P37288 whole entry): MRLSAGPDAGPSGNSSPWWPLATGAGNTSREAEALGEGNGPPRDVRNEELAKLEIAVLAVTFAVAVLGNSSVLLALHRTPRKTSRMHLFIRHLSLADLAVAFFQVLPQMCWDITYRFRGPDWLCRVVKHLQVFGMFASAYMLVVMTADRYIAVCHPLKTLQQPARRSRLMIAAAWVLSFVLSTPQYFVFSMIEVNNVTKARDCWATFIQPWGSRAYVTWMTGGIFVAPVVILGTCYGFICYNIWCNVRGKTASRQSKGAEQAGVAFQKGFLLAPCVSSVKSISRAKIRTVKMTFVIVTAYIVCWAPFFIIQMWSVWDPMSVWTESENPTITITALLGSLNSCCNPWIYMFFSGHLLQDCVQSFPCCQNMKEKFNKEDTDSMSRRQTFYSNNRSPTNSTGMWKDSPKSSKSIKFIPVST

In general, EC50 refers to the midpoint of the concentration-response curve. In the case of `CC[C@H](C)[C@@H]1NC(=O)[C@H](Cc2ccc(O)cc2)NC(=O)CCSSC[C@@H](C(=O)N2CCC[C@H]2C(N)=O)NC(=O)[C@H](CC(N)=O)NC(=O)[C@H](CCC(N)=O)NC1=O`, the EC50 on Oxytocin receptor is 1.3 nM; on Vasopressin V1a receptor it was over 1000 nM. Moreover, in data set [1], the CLint scaled was under 8 mL/min/kg. Besides, the Efficacy in data set [2] turned out to be 89%.

For `CC[C@H](C)[C@@H]1NC(=O)[C@H](Cc2ccc(O)cc2)NC(=O)CCSSC[C@@H](C(=O)N2CCC[C@H]2C(=O)N[C@@H](CC(C)C)C(N)=O)NC(=O)[C@H](CC(N)=O)NC(=O)[C@H](CCC(N)=O)NC1=O`, the 50% effective concentration (EC50) was 1.8 nM on Oxytocin receptor and over 1000 nM on Vasopressin V1a receptor. Besides, in data set [1], the CLint scaled is under 8 mL/min/kg. In data set [2], the Efficacy turned out to be 82%.

Consider `CC[C@H](C)[C@@H]1NC(=O)[C@H](Cc2ccc(O)cc2)NC(=O)CCSSC[C@@H](C(N)=O)NC(=O)[C@H](CC(N)=O)NC(=O)[C@H](CCC(N)=O)NC1=O`, for which the results for the concentration giving a half-maximal response (EC50) at Oxytocin receptor and at Vasopressin V1a receptor were 5.4 nM and over 1000 nM, respectively. Moreover, the CLint scaled in data set [1] is under 8 mL/min/kg. Besides, in data set [2], the Efficacy amounted to 90%.

As for `CC[C@H](C)[C@@H]1NC(=O)[C@H](Cc2ccc(O)cc2)NC(=O)CCSSC[C@@H](C(=O)N2CCC[C@H]2C(=O)N[C@@H](CC(C)C)C(=O)NCC(N)=O)NC(=O)[C@H](CC(N)=O)NC(=O)[C@H](CCC(N)=O)NC1=O`, the CLint scaled in data set [1] is under 8 mL/min/kg. Besides, the Efficacy in data set [2] stood at 106%.

Take `CC[C@H](C)[C@@H]1NC(=O)[C@H](Cc2ccc(O)cc2)NC(=O)CCSSCCNC(=O)[C@H](CC(N)=O)NC(=O)[C@H](CCC(N)=O)NC1=O` ([Mpa]YIQN-Cysteamide; disulfide 1-C): the EC50 at Oxytocin receptor is 28 nM; at Vasopressin V1a receptor it was over 1000 nM. Also, the CLint scaled in data set [1] is under 8 mL/min/kg. In addition, in data set [2], the Efficacy was 67%.

Take `CC[C@H](C)[C@@H]1NC(=O)[C@H](Cc2ccc(O)cc2)NC(=O)CCSSC[C@@H](C(=O)N2CCCC2)NC(=O)[C@H](CC(N)=O)NC(=O)[C@H](CCC(N)=O)NC1=O` ([Mpa]YIQNC-Pyrrolidide; disulfide 1-6): the figures for the concentration giving a half-maximal response (EC50) at Oxytocin receptor and at Vasopressin V1a receptor were 0.51 nM and over 1000 nM, respectively. In addition, the CLint scaled in data set [1] was under 8 mL/min/kg. Besides, the Efficacy in data set [2] was 97%.

Regarding `CC[C@H](C)[C@@H]1NC(=O)[C@H](Cc2ccc(O)cc2)NC(=O)CCSSC[C@@H](C(=O)N2CCC[C@H]2c2ccccn2)NC(=O)[C@H](CC(N)=O)NC(=O)[C@H](CCC(N)=O)NC1=O` ([Mpa]YIQNC-X1; disulfide 1-6), the figures for the EC50 at Oxytocin receptor and on Vasopressin V1a receptor were 0.83 nM and over 1000 nM, respectively. The CLint scaled in data set [1] was under 8 mL/min/kg. The Efficacy in data set [2] was determined as 80%.

With `CC[C@H](C)[C@@H]1NC(=O)[C@H](Cc2ccc(O)cc2)NC(=O)CCSSC[C@@H](C(=O)N2CCC[C@@H]2C)NC(=O)[C@H](CC(N)=O)NC(=O)[C@H](CCC(N)=O)NC1=O` ([Mpa]YIQNC-X2; disulfide 1-6), the results for the concentration for a half-maximal effect (EC50) at Oxytocin receptor and at Vasopressin V1a receptor were 0.6 nM and over 1000 nM, respectively. In addition, in data set [1], the CLint scaled is under 8 mL/min/kg. The Efficacy in data set [2] came to 84%.

With `CC[C@H](C)[C@@H]1NC(=O)[C@H](Cc2ccc(O)cc2)NC(=O)CCSSC[C@@H](C(=O)N2CCC[C@H]2COc2ccccc2)NC(=O)[C@H](CC(N)=O)NC(=O)[C@H](CCC(N)=O)NC1=O` ([Mpa]YIQNC-X3; disulfide 1-6), the EC50 is 194 nM at Oxytocin receptor and over 1000 nM on Vasopressin V1a receptor. In addition, the CLint scaled in data set [1] turned out to be 123 mL/min/kg. Also, the Efficacy in data set [2] was 52%.

For `CC[C@H](C)[C@@H]1NC(=O)[C@H](Cc2ccc(O)cc2)NC(=O)CCSSC[C@@H](C(=O)N2CCC[C@H]2COC)NC(=O)[C@H](CC(N)=O)NC(=O)[C@H](CCC(N)=O)NC1=O` ([Mpa]YIQNC-X4; disulfide 1-6), the EC50 at Oxytocin receptor was 0.44 nM; at Vasopressin V1a receptor, over 1000 nM. In addition, the CLint scaled in data set [1] was under 8 mL/min/kg. Further, the Efficacy in data set [2] was 91%.

Turning to `CC[C@H](C)[C@@H]1NC(=O)[C@H](Cc2ccc(O)cc2)NC(=O)CCSSC[C@@H](C(=O)N2CCC[C@H]2CNc2ccccc2)NC(=O)[C@H](CC(N)=O)NC(=O)[C@H](CCC(N)=O)NC1=O` ([Mpa]YIQNC-X5; disulfide 1-6), the results for the EC50 on Oxytocin receptor and on Vasopressin V1a receptor were 0.77 nM and over 1000 nM, respectively. In addition, the CLint scaled in data set [1] was 40 mL/min/kg. The Efficacy in data set [2] is 76%.

For `CC[C@H](C)[C@@H]1NC(=O)[C@H](Cc2ccc(O)cc2)NC(=O)CCSSC[C@@H](C(=O)N2CCC[C@H]2c2nnc(C)o2)NC(=O)[C@H](CC(N)=O)NC(=O)[C@H](CCC(N)=O)NC1=O` ([Mpa]YIQNC-X6; disulfide 1-6), the concentration giving a half-maximal response (EC50) on Oxytocin receptor is 0.6 nM; at Vasopressin V1a receptor it was over 1000 nM. Further, the CLint scaled in data set [1] was under 8 mL/min/kg. The Efficacy in data set [2] turned out to be 77%.

With `CC[C@H](C)[C@@H]1NC(=O)[C@H](Cc2ccc(O)cc2)NC(=O)CCSSC[C@@H](C(=O)N2CCC[C@H]2CCc2ccccc2)NC(=O)[C@H](CC(N)=O)NC(=O)[C@H](CCC(N)=O)NC1=O` ([Mpa]YIQNC-X8; disulfide 1-6), the values for the EC50 on Oxytocin receptor and on Vasopressin V1a receptor were 5.2 nM and over 1000 nM, respectively. Moreover, the CLint scaled in data set [1] stood at 153 mL/min/kg. Besides, the Efficacy in data set [2] was 59%.

In the case of `CC[C@H](C)[C@@H]1NC(=O)[C@H](Cc2ccc(O)cc2)NC(=O)CCSSC[C@@H](C(=O)N2CCC[C@H]2C(=O)N(C)CCC(C)C)NC(=O)[C@H](CC(N)=O)NC(=O)[C@H](CCC(N)=O)NC1=O` ([Mpa]YIQNCP-X7; disulfide 1-6), the EC50 on Oxytocin receptor was 1.8 nM; on Vasopressin V1a receptor it was over 1000 nM. Moreover, the CLint scaled in data set [1] amounted to 25.5 mL/min/kg. Besides, the Efficacy in data set [2] stood at 94%.

For the molecule `CC[C@H](C)[C@@H]1NC(=O)[C@H](Cc2ccc(O)cc2)NC(=O)CCSSC[C@@H](C(=O)N2CCC[C@H]2C(=O)N2CCC(N3CCCC3)CC2)NC(=O)[C@H](CC(N)=O)NC(=O)[C@H](CCC(N)=O)NC1=O` ([Mpa]YIQNCP-X9; disulfide 1-6), the EC50 was 6.8 nM at Oxytocin receptor and over 1000 nM at Vasopressin V1a receptor. Further, the Efficacy in data set [2] is 98%.

Consider `CC[C@H](C)[C@@H]1NC(=O)[C@H](Cc2ccc(O)cc2)NC(=O)CCSSC[C@@H](C(=O)N2CCC[C@H]2C(=O)N2CCCN(C)CC2)NC(=O)[C@H](CC(N)=O)NC(=O)[C@H](CCC(N)=O)NC1=O` ([Mpa]YIQNCP-X10; disulfide 1-6), for which the figures for the 50% effective concentration (EC50) at Oxytocin receptor and on Vasopressin V1a receptor were 3.6 nM and over 1000 nM, respectively. Further, the Efficacy in data set [2] was found to be 98%.

As for `CC[C@H](C)[C@@H]1NC(=O)[C@H](Cc2ccc(O)cc2)NC(=O)[C@@H](N)CSSC[C@@H](C(=O)N2CCC[C@H]2C(=O)N[C@@H](CC(C)C)C(=O)NCC(N)=O)NC(=O)[C@H](CC(N)=O)NC(=O)[C@H](CCC(N)=O)NC1=O` [OXYTOCIN], in data set [1], the CLint scaled was 30 mL/min/kg. In addition, the Efficacy in data set [2] came to 102%.

Values taken from ChEMBL document CHEMBL4184101, “Hybrid peptide-small molecule oxytocin analogs are potent and selective agonists of the oxytocin receptor” (Bioorg Med Chem Lett, 2018).
